Reference: paper PMC11859980, “Tailored Intranasal Albumin Caged Selegiline-α Synuclein siRNA Liposome with Improved Efficiency in Parkinson’s Model” (Pharmaceutics, 2025)
Like-named read-outs stand apart in the source and are kept apart here.

How the values were obtained:
[1] = test system: catalase; assay type: in vivo, rats
Protocol: (§1) PD was simulated in rats by IP injection of rotenone (3 mg/kg/day) for 11 days. […] On day 30 of the experiment, stride length was recorded based on the spatial distance a paw travels during a stride. Animal forepaws were dipped in black non-toxic ink. The length of forelimb and hindlimb steps in the left and right limbs were measured while walking on a clean piece of paper. Stride length was defined as the distance between each step on the same side of the animal’s body, measured from the mid-digit toe of the first step to the heel of the second.
(§2) On day 30 of the experiment, rats were scarified and brain tissues were collected. Brain tissues were homogenized as previously described and the concentration of dopamine in the brain homogenate was assessed by HPLC-equipped with a fluorescence detector set at excitation/emission wavelengths of 280/315 nm as described elsewhere. Catalase activity in brain homogenate was measured using colorimetric assay at 570 nm using hydrogen peroxide.

[2] = test system: dopamine; assay type: in vivo, rats
Protocol: as §1, §2

[3] = test system: MAO-B; assay type: in vivo, rats; conditions: rotenone 3 mg/kg/day IP 11 days; treatment days 12 and 20; day 30; ELISA
[4] = test system: Parkinson's model rats; assay: Stride length measurement, rotenone-induced PD rat model; assay type: in vivo; conditions: day 30
Protocol: as §1

[5] = test system: Parkinson's model rats; assay: Paw placement and coverage, rotenone-induced PD rat model; assay type: in vivo; conditions: day 30
Protocol: as §1
On day 30, the distance between the location of the behind paw and the previously placed contralateral front paw was measured during the same step cycle while the area covered when the forelimbs or hindlimbs perform a stride was recorded as the coverage area.

[6] = test system: Parkinson's model rats; assay: Open field test, rotenone-induced PD rat model; assay type: in vivo; conditions: 60-minute observation
Protocol: as §1
An open-field device with 16 sub-squares (40 × 40 × 30 cm; Accuscan Instruments, Columbus, OH, USA) was utilized to examine forelimb and hindlimb locomotor impairments in rats following 30 days of PD induction. Prior to the test, each rat was left in its home cage in the testing area for 2 h before being gently carried by the base of its tail to the center of the open field arena. The animal behavior was then studied for 60 min. To measure the rat’s ambulatory distance, the total number of squares crossed was recorded. Additionally, one of the non-motor characteristics of PD that has been investigated is anxiety, which is indexed by the preference exploration of the open field’s periphery. The number of individuals crossing the center zone was noted.

[7] = test system: Parkinson's model rats; assay: Catalepsy test (bar method), rotenone-induced PD rat model; assay type: in vivo; conditions: scale 0 to 5
Protocol: as §1
The catalepsy score was determined using the bar method, which involved measuring the time that rat consumed to remove its forepaws from the rod. The rats were rated on a five-point scale: 0 (0–5 s), 1 (6–15 s), 2 (16–25 s), 3 (26–35 s), 4 (36–60 s), and 5 (>60 s). The rat’s forepaws were gently put on a steel rod positioned 10 cm above the bench. The recording begins when cataleptic animals have been held in this position for at least 30 s (the adapting time).

[8] = In vivo pharmacokinetic study of Sel in plasma and brain; conditions: for AUC(0-t): AUC0–480min; for AUC(0-inf): AUC0–∞; for k el: Kel
Protocol: All animal experiments were conducted in compliance with the guidelines of the ethical committee, Faculty of Pharmacy, University of Sadat City (approval number RERC-FOP-USC-24-02-08). Adult male albino rats (200 g ± 10%) were randomly divided into two groups each of 48 animals. Animals were subjected to anesthesia using sodium thiopental via intraperitoneal injection (IP). […] At each time point, blood samples were collected from 6 animals by cardiac puncture on heparinized tube and then animals were sacrificed. Blood samples were centrifuged at 9000 rpm and the obtained plasma was stored at −80 °C until analysis. The whole brain was isolated, washed with saline, and homogenized at 10,000 rpm in ice-cold PBS (pH 7.4) for 5 min. The homogenate obtained was centrifuged at 9000 rpm for 15 min. Sel concentration in plasma and brain was quantified using LCMS/MS [49, 50]. The maximum drug concentration (Cmax), time required to achieve Cmax (Tmax), area under the concentration-time curve (AUC0–480min and AUC0–∞), mean residence time (MRT), and elimination rate constant (Kel) in both plasma and brain were calculated. All pharmacokinetics data were calculated using the pharmacokinetic software PK Solver-Add Ins for Microsoft Excel 2007. Additionally, absolute bioavailability as well as the Direct-Transport Percentage (DTP%) and Drug-Targeting Efficiency percentage (DTE%) were calculated using the following equations [51]:DTE = (AUCbrain/AUCplasma) IN/(AUCbrain/AUCplasma) IV × 100(2) DTP% = BIN − BX/BIN × 100(3) where BX = BIV/PIV × PIN
BX is the brain AUC0–480min fraction contributed by systemic circulation, following IN administration; BIV is the brain AUC0–480min following IV administration; PIV is the plasma AUC0–480min following IV administration; BIN is the brain AUC0–480min following IN administration; PIN is the plasma AUC0–480min following IN administration.

[9] = rotenone 3 mg/kg/day IP 11 days, treatment days 12 and 20, day 30, mean ± SE (n = 6)
[10] = male, albino, rat, in vivo, iv, 1 mg/kg
[11] = male, albino, rat, in vivo, iv, 1 mg/kg, brain, rat brain, Sel 1 mg/kg, route as in label
[12] = male, albino, rat, in vivo, iv, 1 mg/kg, plasma, rat plasma, Sel 1 mg/kg, route as in label

SMILES: C=C(C)[C@H]1Cc2c(ccc3c2O[C@@H]2COc4cc(OC)c(OC)cc4[C@@H]2C3=O)O1 [rotenone]
- Catalase activity in brain tissue [1, 9]: 12 ± 0.85 U/mg protein
- Dopamine concentration in brain tissue [2, 9]: 49.66 ± 3.23 ng/g
- MAO-B level in brain tissue [3]: 256.33 ± 25.6 ng/g
- Stride length, left forelimb [4]: 102 ± 4.2 mm
- Paw placement, left side [5]: 24.66 ± 2.02 mm
- Paw placement, right side [5]: 30.33 ± 2.95 mm
- Number of center crossings [6]: 3.00 ± 1.91
- Catalepsy score [7]: 4.78 ± 0.17

SMILES: C#CCN(C)[C@H](C)Cc1ccccc1 [IV Sel solution, Selegiline]
- Tmax [8, 10]: 0.5 h
- bioavailability [8, 10]: 100%
- AUC(0-t) [8, 11]: 0.85 ± 0.06 µg·h/mL
- AUC(0-t) [8, 12]: 1.16 ± 0.09 µg·h/mL
- AUC(0-inf) [8, 11]: 1.22 ± 0.15 µg·h/mL
- AUC(0-inf) [8, 12]: 1.54 ± 0.21 µg·h/mL
- k el [8, 11]: 4.44e-05 s⁻¹
- k el [8, 12]: 4.72e-05 s⁻¹
- MRT [8, 11]: 4.56 ± 0.75 h
- MRT [8, 12]: 4.22 ± 0.84 h
- Cmax, brain ([8]; rat brain, Sel 1 mg/kg, route as in label): 0.21 ± 0.03 µg/mL
- Catalase activity in brain tissue ([1]; rat, in vivo): 24 ± 0.82 U/mg protein
- Dopamine concentration in brain tissue ([2]; rat, in vivo): 125.33 ± 3.71 ng/g
- Stride length, left forelimb [4]: 119.5 ± 2.66 mm
- Paw placement, left side [5]: 12 ± 0.57 mm
- Paw placement, right side [5]: 11.66 ± 1.05 mm
- Number of center crossings [6]: 8.33 ± 1.49
- Catalepsy score [7]: 2.11 ± 0.11
